Measurements taken from PubChem BioAssay AID1963982 (Molecular Pharmacology Branch, DTP, NCI, 2024).

Test system: 313798-341-R-J2-PDC spheroids, viability
Test: Anticancer human tumor 313798-341-R-J2-PDC patient-derived cervical squamous cell carcinoma cell line growth inhibition [PI3K]
Conditions: spheroids with HUVEC and MSC; for IC50: curve of first compound; for viability, T/C: stronger effect = lower value
Procedure, shortened: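 Combination activity was assessed by viability in multicellular tumor spheroids carrying HUVEC and MSC components. Agents were tested with PI3K inhibitors from a Cmax-based top dose (or 10 microM) downward in half-log increments.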
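Also: spheroids exposed to compounds for seven days.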
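For viability, T/C in this document: 100% = DMSO vehicle control viability.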

- IC50 (second compound 0.0316 µM): > 10000 nM
- IC50 (second compound 0.1 µM): > 10000 nM
- IC50 (second compound 0.316 µM): < 31.6 nM
- IC50 (second compound 1 µM): < 31.6 nM
- IC50 (second compound 3.16 µM): < 31.6 nM
- IC50 (second compound 10 µM): < 31.6 nM
Structure (SMILES): CC1(C)CCC(Nc2ncc(C(F)(F)F)c(-c3c[nH]c4c(P(C)(C)=O)c(C#N)ccc34)n2)CN1 (configuration not stated) + Cc1nc(NC(=O)N2CCCC2C(N)=O)sc1-c1ccnc(C(C)(C)C(F)(F)F)c1
- viability, T/C (second compound 0.0316 µM, first compound 0.0316 µM): 64.5%
- viability, T/C (second compound 0.0316 µM, first compound 0.1 µM): 49.2%
- viability, T/C (second compound 0.0316 µM, first compound 0.316 µM): 52.4%
- viability, T/C (second compound 0.0316 µM, first compound 1 µM): 54.4%
- viability, T/C (second compound 0.0316 µM, first compound 3.16 µM): 58.8%
- viability, T/C (second compound 0.0316 µM, first compound 10 µM): 71.9%
- viability, T/C (second compound 0.1 µM, first compound 0.0316 µM): 54.9%
- viability, T/C (second compound 0.1 µM, first compound 0.1 µM): 50.8%
- viability, T/C (second compound 0.1 µM, first compound 0.316 µM): 50.3%
- viability, T/C (second compound 0.1 µM, first compound 1 µM): 53.1%
- viability, T/C (second compound 0.1 µM, first compound 3.16 µM): 54.1%
- viability, T/C (second compound 0.1 µM, first compound 10 µM): 66.6%
- viability, T/C (second compound 0.316 µM, first compound 0.0316 µM): 45.7%
- viability, T/C (second compound 0.316 µM, first compound 0.1 µM): 39.6%
- viability, T/C (second compound 0.316 µM, first compound 0.316 µM): 35.5%
- viability, T/C (second compound 0.316 µM, first compound 1 µM): 38.7%
- viability, T/C (second compound 0.316 µM, first compound 3.16 µM): 43.8%
- viability, T/C (second compound 0.316 µM, first compound 10 µM): 52.3%
- viability, T/C (second compound 1 µM, first compound 0.0316 µM): 34.7%
- viability, T/C (second compound 1 µM, first compound 0.1 µM): 32.2%
- viability, T/C (second compound 1 µM, first compound 0.316 µM): 35.5%
- viability, T/C (second compound 1 µM, first compound 1 µM): 34.2%
- viability, T/C (second compound 1 µM, first compound 3.16 µM): 36%
- viability, T/C (second compound 1 µM, first compound 10 µM): 33.7%
- viability, T/C (second compound 3.16 µM, first compound 0.0316 µM): 27.9%
- viability, T/C (second compound 3.16 µM, first compound 0.1 µM): 25%
- viability, T/C (second compound 3.16 µM, first compound 0.316 µM): 23.7%
- viability, T/C (second compound 3.16 µM, first compound 1 µM): 23.3%
- viability, T/C (second compound 3.16 µM, first compound 3.16 µM): 26.2%
- viability, T/C (second compound 3.16 µM, first compound 10 µM): 10.8%
- viability, T/C (second compound 10 µM, first compound 0.0316 µM): 16.9%
- viability, T/C (second compound 10 µM, first compound 0.1 µM): 18.7%
- viability, T/C (second compound 10 µM, first compound 0.316 µM): 16.6%
- viability, T/C (second compound 10 µM, first compound 1 µM): 17.8%
- viability, T/C (second compound 10 µM, first compound 3.16 µM): 17.2%
- viability, T/C (second compound 10 µM, first compound 10 µM): 1.7%
